{"source": "patent US20250236616A1", "about": "“IMMUNOMODULATING AZALIDES” (Zoetis Services LLC, priority 2021, published 2025)", "assay_type_in_all_cases": "cell-based", "key": {"[1]": {"system": "IL-6", "test": "Whole bovine blood assay, LPS-induced IL-6", "details": "fresh whole bovine blood, LPS stimulant, top drug concentration 250 μM"}, "[2]": {"system": "TNF-α", "test": "Whole bovine blood assay, LPS-induced TNF-α", "details": "fresh whole bovine blood, LPS stimulant, top drug concentration 250 μM", "how_it_was_run": "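Fresh heparinized bovine whole blood was preincubated with compound 4 h at 37 °C, then stimulated with LPS (final 1 μg/mL) for 18 h at 37 °C. Plasma TNF-α was quantified by MSD U-Plex chemiluminescent immunoassay, normalized to total protein (BCA), and IC50 taken for LPS-induced TNF-α inhibition.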"}, "[3]": {"system": "IL-1β", "test": "Whole bovine blood assay, LPS-induced IL-1β (inhibition / overstimulation)", "details": "drug concentration giving overstimulation (OS) of LPS-induced IL-1β, top concentration 250 μM", "how_it_was_run": "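Fresh heparinized bovine whole blood was preincubated with compound at varying concentrations for 4 h at 37 °C, then stimulated with 1 μg/mL LPS for 18 h. Plasma IL-1β was measured by MSD chemiluminescent immunoassay and normalized to total protein. Values cover inhibition and concentration-dependent overstimulation.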"}, "[4]": {"system": "BRD pathogens, M. haemolytica and P. multocida", "test": "MIC screening panel, BRD pathogens (CLSI broth micro-dilution)", "text": "Primary screening of the compounds of the invention included the evaluation of antibacterial activity of analogs through determination of microbial inhibition concentration (MIC) as per CLSI guidelines. The screening panel included the relevant BRD pathogens: 1) M. haemolytica (e.g., 12726, 46571 and 49023, all AHDRCC; and 33396 (ATCC)); and 2) P. multocida (e.g., 34135 and 46572 (both AHDRCC) and 43137 (ATCC)). In some instances, H. somni (A700025K) pathogens were also included in the screening panel. The AHDRCC strains originated from the Zoetis BRD/SRD surveillance program and refer to the Animal Health Development and Research Culture Collection. In addition, the screen assessed S. aureus (29213 ATCC) as a representative Gram-positive isolate, E.faecalis (19433 ATCC) as a commensal gram-positive gastrointestinal bacterium and E. coli (100, 3110 and 25922 (ATCC)) for the evaluation of efflux potential. The screening panel BRD pathogens were assessed in determining antibacterial activity of the Formula (1) compounds.\nAll relevant BRD pathogens were initially screened at a top concentration of 64 μg/mL of a Formula (1) compound in an eleven-point dilution series. […] If an Example was purified further, the MICs moved […] essentially two dilutions across all strains tested in the screening panel.\nIn-Vitro MIC Model Compounds were analyzed for antibacterial activity against a panel of animal health specific gram-positive and gram-negative clinical strains by diluting compounds in DMSO to an appropriate stock concentration to determine the Minimal Inhibitory Concentration (MIC) via a semi-automated broth micro-dilution method (CLSI reference method) with QC strains and anti-microbial agent(s). Specifically, bacteria were grown overnight on TSA w/5% sheep blood agar plates and diluted in saline buffer to a McFarland Standard 0.5, then further diluted in cation-ion adjusted Mueller Hinton Broth to a final concentration of approximately 5×10^5 CFU/mL. 100 μL of inoculated media was added to 96-well plate(s) with 3 μL of serially diluted compound in each row. Depending on strain (see CLSI reference method), bacteria were incubated 18-22 hours at 35-37° C. in ambient air, with 5% CO2 or anaerobically (up to 48 hours)."}, "[5]": {"details": "Table B, at least one BRD pathogenic strain, top concentration 64 μg/mL, read-out: MIC flag (*) for BRD pathogenic strains"}, "[6]": {"details": "Table C, at least one BRD pathogenic strain, top concentration 64 μg/mL"}, "[7]": {"details": "BRD pathogens M. haemolytica and P. multocida, read-out: antibacterial / non-antibacterial (MIC class)"}}, "note": "Like-named read-outs stand apart in the source and are kept apart here. Marks after values point to notes of the source that are not given here."}
{"compound": "CCCNC[C@]1(O)[C@H](C)OC(O[C@H]2[C@H](C)[C@@H](O[C@@H]3O[C@H](C)C[C@H](N(C)S(=O)(=O)c4cc(Br)c(Br)s4)[C@H]3Oc3ccc(OC)cc3)[C@](C)(O)C[C@@H](C)CN[C@H](C)[C@@H](O)[C@](C)(O)[C@@H](CC)OC(=O)[C@@H]2C)C[C@@]1(C)OC", "note": "(stereo partly drawn) [Example B-105, 4,5-dibromo-N-[(2S,3R,4S,6R)-2-[[(2R,3S,4R,5R,8R,10R,11R, 12S, 13S, 14R)-2-ethyl-3,4, 10-trihydroxy-13-[(4R,5S,6S)-5-hydroxy-4-methoxy-4,6-dimethyl-5-(propylaminomethyl)oxan-2-yl]oxy-3,5,8, 10, 12,14-hexamethyl-15-oxo-1-oxa-6-azacyclopentadec-11-yl]oxy]-3-(4-methoxyphenoxy)-6-methyloxan-4-yl]-N-methylthiophene-2-sulfonamide]", "values": [{"measurement": "IC50", "setting": "[1]; Bos taurus", "value": 7, "unit": "µM"}, {"measurement": "IC50", "setting": "[2]; Bos taurus", "value": 12, "unit": "µM"}, {"measurement": "minimal effective concentration", "setting": "[3]; Bos taurus, 18 h", "value": 3, "unit": "µM"}, {"measurement": "MIC", "setting": "[4]; [5]", "value": "≤ 64", "unit": "µg/mL"}]}
{"compound": "(2R,3S,4R,5R,8R,10R,11R,12S,13S,14R)-2-ethyl-3,4,10-trihydroxy-13-[(2R,4R,5S,6S)-5-hydroxy-4-methoxy-4,6-dimethyl-5-[(3,3,3-trifluoropropylamino)methyl]oxan-2-yl]oxy-11-[(2S,3R,4S,6R)-3-hydroxy-6-methyl-4-[methyl-[[4-(trifluoromethyl)phenyl]sulfamoyl]amino]oxan-2-yl]oxy-3,5,8, 10, 12,14-hexamethyl-15-oxo-1-oxa-6-azacyclopentadecane [Example B-65]", "values": [{"measurement": "IC50", "setting": "[1]", "value": 15, "unit": "µM"}, {"measurement": "IC50", "setting": "[2]", "value": 9, "unit": "µM"}, {"measurement": "minimal effective concentration", "setting": "[3]", "value": 6, "unit": "µM"}, {"measurement": "MIC flag (*) for BRD pathogenic strains", "setting": "[4]; Table B, at least one BRD pathogenic strain, top concentration 64 μg/mL", "value": "B-65* (MIC ≤64 μg/mL for at least one BRD pathogenic strain)"}]}
{"compound": "(2R,3S,4R,5R,8R,10R,11R, 12S, 13S, 14R)-2-ethyl-11-[(2R,3S,4R,6S)-4-[(3-fluorophenyl) sulfamoyl-methylamino]-3-hydroxy-6-methyloxan-2-yl]oxy-3,4, 10-trihydroxy-13-[(2R,4R,5S,6S)-5-hydroxy-4-methoxy-4,6-dimethyl-5-(piperidin-1-ylmethyl)-oxan-2-yl]oxy-3,5,8,10, 12,14-hexamethyl-15-oxo-1-oxa-6-azacyclopentadecane [Example C-24]", "values": [{"measurement": "IC50", "setting": "[1]", "value": 25, "unit": "µM"}, {"measurement": "IC50", "setting": "[2]", "value": 16, "unit": "µM"}, {"measurement": "minimal effective concentration", "setting": "[3]", "value": 3, "unit": "µM"}, {"measurement": "MIC flag (*) for BRD pathogenic strains", "setting": "[4]; [6]", "value": "C-24* (MIC ≤64 μg/mL for at least one BRD pathogenic strain)"}]}
{"compound": "CCCNC[C@]1(O)[C@H](C)O[C@@H](O[C@H]2[C@H](C)[C@@H](O[C@@H]3O[C@H](C)C[C@H](N(C)S(=O)(=O)c4cccnc4)[C@H]3O)[C@](C)(O)C[C@@H](C)CN[C@H](C)[C@@H](O)[C@](C)(O)[C@@H](CC)OC(=O)[C@@H]2C)C[C@@]1(C)OC", "note": "[Example B-12, N-((2S,3R,4S,6R)-2-(((2R,3S,4R,5R,8R,10R,11R,12S, 13S,14R)-2-ethyl-3,4,10-trihydroxy-13-(((2R,4R,5S,6S)-5-hydroxy-4-methoxy-4,6-dimethyl-5-((propylamino)methyl)tetrahydro-2H-pyran-2-yl)oxy)-3,5,8,10,12,14-hexamethyl-15-oxo-1-oxa-6-azacyclopentadecan-11-yl)oxy)-3-hydroxy-6-methyltetrahydro-2H-pyran-4-yl)-N-methylpyridine-3-sulfonamide]", "values": [{"measurement": "minimal effective concentration", "setting": "[3]; Bos taurus, 18 h", "value": "> 250", "unit": "µM"}, {"measurement": "MIC", "setting": "[4]; [5]", "value": "≤ 64", "unit": "µg/mL"}]}
{"compound": "CC(=O)O.CCCN1C[C@H](C)C[C@@](C)(O)[C@H](O[C@@H]2O[C@H](C)C[C@H](N(C)S(=O)(=O)Nc3ccc(C(F)(F)F)cc3)[C@H]2O)[C@@H](C)[C@H](O[C@H]2C[C@@](C)(OC)[C@](O)(CN3CCCCC3)[C@H](C)O2)[C@@H](C)C(=O)O[C@H](CC)[C@@](C)(O)[C@H](O)[C@H]1C", "note": "[Example C-58, (2R,3S,4R,5R,8R,10R,11R,12S,13S,14R)-2-ethyl-3,4,10-trihydroxy-13-[(2R,4R,5S,6S)-5-hydroxy-4-methoxy-4,6-dimethyl-5-(piperidin-1-ylmethyl)oxan-2-yl]oxy-11-[(2S,3R,4S,6R)-3-hydroxy-6-methyl-4-[methyl-[[4-(trifluoromethyl)phenyl]sulfamoyl]amino]oxan-2-yl]oxy-3,5,8, 10, 12,14-hexamethyl-15-oxo-6-propyl-1-oxa-6-azacyclopentadecane, acetic acid]", "values": [{"measurement": "IC50", "setting": "[1]", "value": 13, "unit": "µM"}, {"measurement": "IC50", "setting": "[2]", "value": 9, "unit": "µM"}, {"measurement": "minimal effective concentration", "setting": "[3]", "value": 12, "unit": "µM"}, {"measurement": "MIC flag (*) for BRD pathogenic strains", "setting": "[4]; [6]", "value": "C-58* (MIC ≤64 μg/mL for at least one BRD pathogenic strain)"}]}
{"compound": "CC[C@H]1OC(=O)[C@H](C)[C@@H](O)[C@H](C)[C@@H](O[C@@H]2O[C@H](C)C[C@H](N(C)S(=O)(=O)c3scnc3C)[C@H]2Oc2ccc(F)cc2)[C@](C)(O)C[C@@H](C)CN[C@H](C)[C@@H](O)[C@]1(C)O", "note": "[Example A-26]", "values": [{"measurement": "IC50", "setting": "[1]", "value": 49, "unit": "µM"}, {"measurement": "IC50", "setting": "[2]", "value": 130, "unit": "µM"}, {"measurement": "minimal effective concentration", "setting": "[3]", "value": 16, "unit": "µM"}, {"measurement": "MIC flag (*) for BRD pathogenic strains", "setting": "[4]; Table A, at least one BRD pathogenic strain, top concentration 64 μg/mL", "value": "A-26* (MIC ≤64 μg/mL for at least one BRD pathogenic strain)"}]}
{"compound": "CC[C@H]1OC(=O)[C@H](C)[C@@H](OC2CC(C)(OC)C(O)(CN3CCCCC3)[C@@H](C)O2)[C@H](C)[C@@H](O[C@@H]2O[C@H](C)C[C@H](N(C)S(=O)(=O)c3ccc(Cl)cc3)[C@H]2O)[C@](C)(O)C[C@@H](C)CN(C)[C@H](C)[C@@H](O)[C@]1(C)O", "note": "(stereo partly drawn) [Example C-38, 4-chloro-N-((2S,3R,4S,6R)-2-(((2R,3S,4R,5R,8R,10R,11R,12S,13S,14R)-2-ethyl-3,4,10-trihydroxy-13-(((6R)-5-hydroxy-4-methoxy-4,6-dimethyl-5-(piperidin-1-ylmethyl)tetrahydro-2H-pyran-2-yl)oxy)-3,5,6,8, 10, 12, 14-heptamethyl-15-oxo-1-oxa-6-azacyclopentadecan-11-yl)oxy)-3-hydroxy-6-methyltetrahydro-2H-pyran-4-yl)-N-methylbenzenesulfonamide]", "values": [{"measurement": "IC50", "setting": "[1]; Bos taurus", "value": 4, "unit": "µM"}, {"measurement": "IC50", "setting": "[2]; Bos taurus", "value": 9, "unit": "µM"}, {"measurement": "minimal effective concentration", "setting": "[3]; Bos taurus, 18 h", "value": 28, "unit": "µM"}, {"measurement": "MIC", "setting": "[4]; Table C, at least one BRD pathogenic strain, top concentration 64 μg/mL, read-out: MIC flag (*) for BRD pathogenic strains", "value": "≤ 64", "unit": "µg/mL"}]}
{"compound": "CC[C@H]1OC(=O)[C@H](C)[C@@H](O[C@H]2C[C@@](C)(OC)[C@](O)(CCl)[C@H](C)O2)[C@H](C)[C@@H](O[C@@H]2O[C@H](C)C[C@H](N(C)S(=O)(=O)c3ccc(Cl)cc3)[C@H]2O)[C@](C)(O)C[C@@H](C)CN[C@H](C)[C@@H](O)[C@]1(C)O", "note": "[Example A4-1, 4-chloro-N-((2S,3R,4S,6R)-2-(((2R,3S,4R,5R,8R,10R,11R,12S,13S,14R)-13-(((2R,4R,5S,6S)-5-(chloromethyl)-5-hydroxy-4-methoxy-4,6-dimethyltetrahydro-2H-pyran-2-yl)oxy)-2-ethyl-3,4,10-trihydroxy-3,5,8,10,12,14-hexamethyl-15-oxo-1-oxa-6-azacyclopentadecan-11-yl)oxy)-3-hydroxy-6-methyltetrahydro-2H-pyran-4-yl)-N-methylbenzenesulfonamide]", "values": [{"measurement": "IC50", "setting": "[1]; Bos taurus", "value": 26, "unit": "µM"}, {"measurement": "IC50", "setting": "[2]; Bos taurus", "value": 44, "unit": "µM"}, {"measurement": "minimal effective concentration", "setting": "[3]; Bos taurus, 18 h", "value": 12, "unit": "µM"}, {"measurement": "MIC", "setting": "[4]; [7]", "value": "> 64", "unit": "µg/mL"}]}
{"compound": "CC[C@H]1OC(=O)[C@H](C)[C@@H](O[C@H]2C[C@@](C)(OC)[C@](O)(CSc3ccccc3)[C@H](C)O2)[C@H](C)[C@@H](O[C@@H]2O[C@H](C)C[C@H](N(C)S(=O)(=O)c3ccc(Cl)cc3)[C@H]2O)[C@](C)(O)C[C@@H](C)CN[C@H](C)[C@@H](O)[C@]1(C)O", "note": "[Example A3-1, 4-chloro-N-((2S,3R,4S,6R)-2-(((2R,3S,4R,5R,8R,10R,11R,12S,13S,14R)-2-ethyl-3,4, 10-trihydroxy-13-(((2R,4R,5S,6S)-5-hydroxy-4-methoxy-4,6-dimethyl-5-((phenylthio)methyl)tetrahydro-2H-pyran-2-yl)oxy)-3,5,8, 10, 12, 14-hexamethyl-15-oxo-1-oxa-6-azacyclopentadecan-11-yl)oxy)-3-hydroxy-6-methyltetrahydro-2H-pyran-4-yl)-N-methylbenzenesulfonamide]", "values": [{"measurement": "IC50", "setting": "[1]; Bos taurus", "value": 31, "unit": "µM"}, {"measurement": "IC50", "setting": "[2]; Bos taurus", "value": 27, "unit": "µM"}, {"measurement": "MIC", "setting": "[4]; [7]", "value": "> 64", "unit": "µg/mL"}]}
